Read-outs that look alike come from different tables or passages of the source.
Key:
TRPM8 receptor = molecular target: T1, TRPM8 receptor (Homo sapiens, UniProt Q7Z2W7); assay: Receptor assay, fluorescence (Relative Fluorescence Units), ChanTest; format: cell-based; conditions: FIG. 4
T1 construct: ChanTest Corporation
Experimental: FIG. 4 is a graph of fluorescence (Relative Fluourescence Units; % Maximum) of test compounds, as a function of the logarithm of the concentration of the test compound (μM). The compounds tested were 2-4 (circle), 2-5 (square), 2-6 (inverted triangle), 2-7 (diamond), and 2-8 (star), representing the 1 [di-sec-butyl-phosphinoyl]-butane, pentane, hexane, heptane, and octane analogs, respectively. The receptor assays were conducted by ChanTest Corporation, Cleveland, Ohio 44128. […] The 95% confidence intervals of 2-5 to 2-8 overlap.
(§1) FIG. 5. illustrates the activity of 2-5 on cells transfected with the TRPA1 and TRPV1. TRPA1 and TRPV1 receptors mediate nociception: that is, stimulation of these receptors results in irritation and pain. Capsaicin and mustard oil are the positive control substances for TRPV1 and TRPA1, respectively.

TRPV1 = molecular target: T2, TRPV1 (Homo sapiens, UniProt Q8NER1); assay: Activity on TRPV1 transfected cells; format: cell-based; conditions: FIG. 5; capsaicin positive control
T2 construct: expressed in transfected cells
T2 sequence (Q8NER1 whole entry, species assumed): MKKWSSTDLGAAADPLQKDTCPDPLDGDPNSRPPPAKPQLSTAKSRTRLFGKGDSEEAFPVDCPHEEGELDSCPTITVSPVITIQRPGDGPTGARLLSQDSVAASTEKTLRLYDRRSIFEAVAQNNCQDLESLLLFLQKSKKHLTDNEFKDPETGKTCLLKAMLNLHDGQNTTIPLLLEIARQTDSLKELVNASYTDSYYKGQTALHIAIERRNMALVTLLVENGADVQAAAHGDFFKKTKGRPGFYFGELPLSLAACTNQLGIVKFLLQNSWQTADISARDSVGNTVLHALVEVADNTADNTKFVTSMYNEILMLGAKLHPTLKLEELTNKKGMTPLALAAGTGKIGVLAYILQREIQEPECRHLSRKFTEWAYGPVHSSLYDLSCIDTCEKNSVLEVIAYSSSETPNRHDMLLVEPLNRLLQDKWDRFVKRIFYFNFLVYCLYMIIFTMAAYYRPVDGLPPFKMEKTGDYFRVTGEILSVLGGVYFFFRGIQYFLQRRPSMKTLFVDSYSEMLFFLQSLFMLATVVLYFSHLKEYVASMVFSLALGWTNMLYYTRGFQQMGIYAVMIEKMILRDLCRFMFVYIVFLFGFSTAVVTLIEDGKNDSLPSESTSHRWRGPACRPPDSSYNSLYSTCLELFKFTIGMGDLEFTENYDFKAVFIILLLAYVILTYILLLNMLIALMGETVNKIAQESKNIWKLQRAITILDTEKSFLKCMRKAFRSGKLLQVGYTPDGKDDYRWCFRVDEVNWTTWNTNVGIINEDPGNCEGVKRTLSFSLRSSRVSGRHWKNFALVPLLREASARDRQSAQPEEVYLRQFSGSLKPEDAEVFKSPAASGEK
Source text: as §1

skin of the eyelids = assay: Irritation when applied in vivo to the skin of the eyelids; conditions: compared among analogs 2-4 to 2-8
TRPA1 = molecular target: T3, TRPA1 (Homo sapiens, UniProt O75762); assay: Activity on TRPA1 transfected cells; format: cell-based; conditions: FIG. 5; mustard oil positive control
T3 construct: expressed in transfected cells
T3 sequence (O75762 whole entry, species assumed): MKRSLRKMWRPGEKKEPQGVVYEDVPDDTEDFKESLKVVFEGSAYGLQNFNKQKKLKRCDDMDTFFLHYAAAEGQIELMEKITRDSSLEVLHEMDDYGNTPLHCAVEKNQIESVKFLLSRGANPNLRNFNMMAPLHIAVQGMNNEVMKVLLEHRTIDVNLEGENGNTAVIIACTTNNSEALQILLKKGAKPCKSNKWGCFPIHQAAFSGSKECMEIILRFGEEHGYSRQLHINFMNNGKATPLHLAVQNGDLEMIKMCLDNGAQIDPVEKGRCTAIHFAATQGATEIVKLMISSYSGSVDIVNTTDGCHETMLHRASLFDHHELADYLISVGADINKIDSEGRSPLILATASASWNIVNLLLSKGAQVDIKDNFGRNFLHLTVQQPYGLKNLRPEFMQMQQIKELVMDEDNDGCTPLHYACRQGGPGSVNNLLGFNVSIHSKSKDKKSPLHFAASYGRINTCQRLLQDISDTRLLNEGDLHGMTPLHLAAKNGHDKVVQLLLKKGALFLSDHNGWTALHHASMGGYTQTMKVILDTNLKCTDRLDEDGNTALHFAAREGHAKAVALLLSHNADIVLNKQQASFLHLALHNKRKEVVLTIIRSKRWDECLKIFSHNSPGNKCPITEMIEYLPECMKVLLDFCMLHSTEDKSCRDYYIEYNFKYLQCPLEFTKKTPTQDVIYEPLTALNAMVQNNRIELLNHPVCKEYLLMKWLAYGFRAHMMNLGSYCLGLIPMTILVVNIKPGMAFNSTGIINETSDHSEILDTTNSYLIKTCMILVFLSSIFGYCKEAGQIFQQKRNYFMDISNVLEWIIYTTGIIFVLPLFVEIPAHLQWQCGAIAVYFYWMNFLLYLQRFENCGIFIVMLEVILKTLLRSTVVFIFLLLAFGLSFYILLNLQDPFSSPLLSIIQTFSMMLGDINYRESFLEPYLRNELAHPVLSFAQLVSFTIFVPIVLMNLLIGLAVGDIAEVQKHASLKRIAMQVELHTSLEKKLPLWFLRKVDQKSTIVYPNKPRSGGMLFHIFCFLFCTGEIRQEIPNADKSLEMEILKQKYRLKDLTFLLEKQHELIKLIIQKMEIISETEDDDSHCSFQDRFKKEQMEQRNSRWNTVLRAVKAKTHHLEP
Source text: as §1

ocular surface = assay: Periocular spray of 2-5 over the closed eye in normal subjects and dry eyes syndrome patients; format: in vivo, human
Experimental: Sensory discomfort of the eye is a conspicuous symptom in patients diagnosed with “dry eyes disease.” The study described below was conducted by Prof. K. C. Yoon of the Department of Ophthalmology, Chonnam National University Medical School, Gwangju, South Korea. Prof. Yoon is an acknowledged expert on the investigation of dry eyes disease and has published extensively on this subject [e.g. Yoon, K.-C. et al. Application of umbilical cord serum eyedrops for the treatment of dry eye syndrome. Cornea 25, 268-72 (2006). Yoon, K.-C. et al. Comparison of autologous serum and umbilical cord serum eye drops for dry eye syndrome. Am. J. Ophthalmol. 144, 86-92 (2007).] The methods used in these two publications were also used in the experiments described below. This report was presented as an Oral Communication entitled “Effect of a periocular spray of a TRPM8 agonist on the ocular surface” at the 110th Meeting of the Korean Ophthalmological Society, Bexco, Busan, Korea on Apr. 13, 2014.
2-5 was prepared as a 2 mg/mL solution in distilled water and administered as a spray [sprayed volume of ˜0.1 mL] over the closed right eye of test subjects. There were 20 subjects in the normal group [9 males/11 females] and 17 subjects in the group with defined “dry eyes syndrome” [7 males/10 females]. Exclusion criteria for patient selection was age of <18 years, systemic medication that may affect tear secretion, previous punctal plug insertion, history of contact lenses use, previous ocular surgery or trauma, pregnancy or lactation, and ocular or systemic disease. The average age of the subjects was 29 years, and both groups had normal values for visual acuity, intraocular pressure, and corneal sensitivity [Cochet-Bonnet esthesiometry, measured with a microfilament]. […] The score for keratoepitheliopathy [National Eye Institute system] was 0.1±0.3 and 2.5±1.7, in the normal vs the “dry eyes syndrome” group.
Subjective symptoms were graded on a numerical score. A visual analog scale score [0 to 10 units] was used for grading the degree of soothing and cooling sensation on the ocular surface. For symptoms of the dry eyes syndrome, a scale of zero to four was used, with zero representing no symptoms and four representing very severe symptoms that caused discomfort and interfered with normal activities. These methods have been described in detail elsewhere and are incorporated by reference [Yoon, K.-C. et al. Application of umbilical cord serum eyedrops for the treatment of dry eye syndrome. Cornea 25, 268-72 (2006). Yoon, K.-C. et al. Comparison of autologous serum and umbilical cord serum eye drops for dry eye syndrome. Am. J. Ophthalmol. 144, 86-92 (2007)].
The onset was less than 3 min and reached maximal effect in the first 10 min. The mean duration of cooling was 42±8 min and all cooling sensations disappeared by 1 hr. For patients previously diagnosed with “dry eyes” disease there was a reduction of symptom score from 1.8 to 0.5, a highly significant event [P<0.001]. […] However, the magnitude of the effect was not considered clinically significant and may have been due to increased sensitivity of the dry eyes patients to foreign solutions applied to the ocular surface. The keratoepitheliopathy score was not affected by treatment.
The mechanical sensitivity of the cornea, measured with the Cochet-Bonnet esthesiometer, was not affected in all patients, in the 1.5 hr test period with […], spaced 30 min apart. This is an important observation from the viewpoint of safety in use, because numbness of the corneal surface will increase risks of eye injury from foreign materials.

human ocular surface = conditions: for Irritancy, delivery unit: wiped across the orbital skin
Experimental: Subjects received different ethanol-water concentrations either in eye drops or via the delivery unit. Subjects were asked to report irritation, stinging, burning sensations, or pain in the 2 to 5 min after application. The intensity of the subjective eye sensation was rated as 0, 1, 2 or 3 with: 0 as no effect; 1 as slight; 2 as a clear-cut effect; and 3 as severe.

[1] = dry eyes group, first 30 min, not considered clinically significant
[2] = ethanol 5% wt/vol in water, scale 0-3
[3] = ethanol 10% wt/vol in water, scale 0-3

T1 sequence (Q7Z2W7 whole entry): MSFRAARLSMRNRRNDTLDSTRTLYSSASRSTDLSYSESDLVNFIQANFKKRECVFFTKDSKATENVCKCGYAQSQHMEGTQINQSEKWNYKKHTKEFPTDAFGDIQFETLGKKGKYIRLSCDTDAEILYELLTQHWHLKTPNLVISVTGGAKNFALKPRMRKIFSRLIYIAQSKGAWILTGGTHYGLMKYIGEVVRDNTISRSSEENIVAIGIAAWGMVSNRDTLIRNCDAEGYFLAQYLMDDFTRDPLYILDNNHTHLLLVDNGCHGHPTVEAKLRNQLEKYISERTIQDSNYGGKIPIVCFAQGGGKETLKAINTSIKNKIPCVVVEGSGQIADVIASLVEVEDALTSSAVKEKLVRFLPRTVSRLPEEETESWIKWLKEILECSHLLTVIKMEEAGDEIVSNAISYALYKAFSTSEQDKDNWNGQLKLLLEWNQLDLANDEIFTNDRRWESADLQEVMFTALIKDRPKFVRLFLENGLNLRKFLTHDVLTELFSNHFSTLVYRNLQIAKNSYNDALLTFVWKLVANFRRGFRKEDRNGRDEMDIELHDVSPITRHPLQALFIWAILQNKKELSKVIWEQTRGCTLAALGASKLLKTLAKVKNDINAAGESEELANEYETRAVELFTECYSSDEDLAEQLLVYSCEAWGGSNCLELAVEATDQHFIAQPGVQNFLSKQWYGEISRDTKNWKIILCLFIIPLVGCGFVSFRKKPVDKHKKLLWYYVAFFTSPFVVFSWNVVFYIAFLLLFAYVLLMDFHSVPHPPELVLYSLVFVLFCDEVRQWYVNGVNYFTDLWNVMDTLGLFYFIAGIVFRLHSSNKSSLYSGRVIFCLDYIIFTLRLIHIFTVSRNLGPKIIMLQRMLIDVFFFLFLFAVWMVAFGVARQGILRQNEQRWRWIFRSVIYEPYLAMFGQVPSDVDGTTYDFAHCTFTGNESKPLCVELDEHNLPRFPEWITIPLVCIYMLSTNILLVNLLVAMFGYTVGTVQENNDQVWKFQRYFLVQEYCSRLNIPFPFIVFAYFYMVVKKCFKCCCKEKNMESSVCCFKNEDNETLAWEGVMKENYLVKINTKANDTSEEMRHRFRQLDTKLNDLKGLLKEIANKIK

Compound: CCCCCCCCP(=O)(C(C)CC)C(C)CC (centres unmarked) [2-8, 1 [di-sec-butyl-phosphinoyl]-octane]
- Potency relative to 1-menthol in the same assay (TRPM8 receptor): 3.0 ×

Compound: CCCCCP(=O)(C(C)CC)C(C)CC (centres unmarked) [2-5, 1-di(sec-butyl) phosphinoyl-pentane]
- Stimulation of TRPV1 (TRPV1): does not stimulate
- Irritation when applied to the skin of the eyelids (skin of the eyelids): minimal irritation
- Stimulation of TRPA1 (TRPA1): does not stimulate
- Soothing and cooling sensations on the ocular surface after blinking (ocular surface; 2 mg/mL in distilled water, spray ~0.1 mL over closed eye): all subjects felt soothing and cooling sensations
- Mean duration of cooling (ocular surface; 2 mg/mL spray over closed eye): 42 ± 8 min
- Onset of cooling (ocular surface; 2 mg/mL spray over closed eye): less than 3 min
- Time by which all cooling sensations disappeared (ocular surface; 2 mg/mL spray over closed eye): ≤ 1 h
- Time of maximal effect (ocular surface; 2 mg/mL spray over closed eye): ≤ 10 min
- Keratoepitheliopathy score (ocular surface; after treatment): not affected
- Mechanical sensitivity of the cornea (Cochet-Bonnet esthesiometer) (ocular surface; all patients, 1.5 hr test period, 5 points of measurement): not affected
- Tear Film BUT (ocular surface; [1]): slightly elevated
- Tear secretion rates (ocular surface; [1]): slightly elevated
- Symptom score after treatment (ocular surface; dry eyes patients, scale zero to four, reduced from 1.8, P<0.001): 0.5
- Tear Film BUT (ocular surface; normal group): not significantly affected
- Tear secretion rates (ocular surface; normal group): not significantly affected
- Potency relative to 1-menthol in the same assay (TRPM8 receptor): 2.2 ×

Compound: CCCCP(=O)(C(C)CC)C(C)CC (centres unmarked) [2-4, 1 [di-sec-butyl-phosphinoyl]-butane]
- Potency relative to 1-menthol in the same assay (TRPM8 receptor): 0.3 ×

Compound: CCCCCCP(=O)(C(C)CC)C(C)CC (centres unmarked) [2-6, 1 [di-sec-butyl-phosphinoyl]-hexane]
- Potency relative to 1-menthol in the same assay (TRPM8 receptor): 4-9 ×

Compound: CCO [Ethanol]
- Sensation upon delivery (human ocular surface; 5% ethanol solution as an eye drop): clearly aversive as an eye drop, producing stinging and pain upon delivery
- Sensation upon delivery (human ocular surface; 20% applied to the eye with a wipe): mild burning sensations in two subjects
- Irritancy, eye drops (human ocular surface; ethanol 2.5% wt/vol in water, scale 0-3 (0 no effect, 3 strongly irritating), N = 8 experiments): 0
- Irritancy, delivery unit (human ocular surface; ethanol 2.5% wt/vol in water, scale 0-3): 0
- Irritancy, eye drops (human ocular surface; [2]): +2
- Irritancy, delivery unit (human ocular surface; [2]): 0
- Irritancy, eye drops (human ocular surface; [3]): +3
- Irritancy, delivery unit (human ocular surface; [3]): 0
- Irritancy, delivery unit (human ocular surface; ethanol 20% wt/vol in water, scale 0-3): +1
- Change in decreased sensitivity to irritation, swab method versus eye drops (human ocular surface; ethanol/water): ~4 fold

From US20150290029A1, “Delivery Systems for Agents to treat Ocular Discomfort” (priority 2014, published 2015)
